# Assay results from US6262051A, “Fungicidal methoximinomethyldioxazines” (Bayer Aktiengesellschaft, priority 1997, dated 2001).
# Where two headings read alike, the source gives them in different places.
# Key:
# [1] = tested on: Erysiphe graminis f.sp. hordei; experiment: Example C: Erysiphe test (barley)/protective (N,N-dimethylacetamide); assay type: in vivo; settings: protective, solvent N,N-dimethylacetamide, 250 g/ha, 7 days after inoculation, vs untreated control
# Method: (§1) Erysiphe test (barley)/protective Solvent: 25 parts by weight of N,N-dimethylacetamide Emulsifier: 0.6 part by weight of alkylaryl polyglycol ether To produce a suitable preparation of active compound, 1 part by weight of active compound is mixed with the stated amount of solvent and emulsifier, and the concentrate is diluted with water to the desired concentration. To test for protective activity, young plants are sprayed with the preparation of active compound at the stated application rate. After the spray coating has dried on, the plants are dusted with spores of Erysiphe graminis f.sp. hordei. The plants are placed in a greenhouse at a temperature of approximately 20° C. and a relative atmospheric humidity of approximately 80% to promote the development of mildew postules.
# HPLC logP = assay type: physicochemical
# Plasmopara viticola = experiment: Example D: Plasmopara test (grapevine)/protective; assay type: in vivo; settings: Plasmopara viticola, 144 h, protective, 6 days after inoculation, vs untreated control, read-out: Efficacy in %
# Method: Plasmopara test (grapevine)/protective Solvent: 47 parts by weight of acetone Emulsifier: 3 parts by weight of alkylaryl polyglycol ether To produce a suitable preparation of active compound, 1 part by weight of active compound is mixed with the stated amount of solvent and emulsifier, and the concentrate is diluted with water to the desired concentration. To test for protective activity, young plants are sprayed with the preparation of active compound at the stated application rate. […]
# Sphaerotheca fuliginea = experiment: Example E: Sphaerotheca test (cucumber)/protective; assay type: in vivo; settings: protective, 100 g/ha, 10 days after inoculation, vs untreated control
# Method: Sphaerotheca test (cucumber)/protective Solvent: 47 parts by weight of acetone Emulsifier: 3 parts by weight of alkylaryl polyglycol ether To produce a suitable preparation of active compound, 1 part by weight of active compound is mixed with the stated amount of solvent and emulsifier, and the concentrate is diluted with water to the desired concentration. To test for protective activity, young plants are sprayed with the preparation of active compound at the stated application rate. After the spray coating is dried on, the plants are inoculated with an aqueous spore suspension of Sphaerotheca fuliginea.
# Pyricularia oryzae = assay type: in vivo; settings: rice, protective; 750 g/ha; 4 days after inoculation; vs untreated control
# [2] = tested on: Erysiphe graminis f.sp. hordei; experiment: Example B: Erysiphe test (barley)/curative; assay type: in vivo; settings: curative (sprayed 48 hours after inoculation), 250 g/ha, 7 days after inoculation, vs untreated control
# Method: Erysiphe test (barley)/curative Solvent: 10 parts by weight of N-methyl-pyrrolidone Emulsifier: 0.6 part by weight of alkylaryl polyglycol ether To produce a suitable preparation of active compound, 1 part by weight of active compound is mixed with the stated amount of solvent and emulsifier, and the concentrate is diluted with water to the desired concentration. To test for curative activity, young plants are dusted with spores of Erysiphe graminis f.sp. hordei. 48 hours after the inoculation, the plants are sprayed with the preparation of active compound at the stated application rate. The plants are placed in a greenhouse at a temperature of approximately 20° C. and a relative atmospheric humidity of approximately 80% to promote the development of mildew postures.
# [3] = tested on: Erysiphe graminis f.sp. hordei; experiment: Example A: Erysiphe test (barley)/protective (N-methyl-pyrrolidone); assay type: in vivo; settings: protective, 250 g/ha, 7 days after inoculation, vs untreated control
# Method: as §1, with “Solvent: 10” for “Solvent: 25”, “of N-methyl-pyrrolidone” for “of N,N-dimethylacetamide”, “0.6 parts” for “0.6 part”
SMILES,Efficacy in % [1] [%],chromatographic logP (HPLC logP; Table 1),pest or weed control at 100 g/ha (Plasmopara viticola) [%],Efficacy in % (Sphaerotheca fuliginea),chromatographic logP (HPLC logP),Efficacy in % (Pyricularia oryzae),Efficacy in % [2] [%],Efficacy in % [3] [%]
CCCCCCOc1ccnc(Oc2ccccc2C(=NOC)C2=NOCCO2)n1 [Example 13],100,3.8,≤ 100,,,,,
"CON=C(C1=NOCCO1)c1ccccc1Oc1nccc(OCC(Cl)(Cl)Cl)n1 [Example 2, (5,6-dihydro-[1,4,2]dioxazin-3-yl)-{2-[4-(2,2,2-trichloroethoxy)-pyrimidine-2-yloxy]-phenyl}-methanone O-methyl oxime]",,,≤ 100,more than 90%,3.1,,,
CCCOc1ccnc(Oc2ccccc2C(=NOC)C2=NOCCO2)n1 [Example 6],,2.5,,more than 90%,,at least 70%,100,
CON=C(C1=NOCCO1)c1ccccc1Oc1nccc(OCC(F)(F)C(F)(F)F)n1 [drawing 43],,,,92%,,,,
CCOc1ccnc(Oc2ccccc2C(=NOC)C2=NOCCO2)n1 [Example 5],,2.2,,,,at least 70%,,
CON=C(C1=NOCCO1)c1ccccc1Oc1nccc(OCc2ccccc2)n1 [Example 12],,2.9,≤ 100,,,,,
CON=C(C1=NOCCO1)c1ccccc1Oc1nccc(OCC(F)(F)C(F)(F)F)n1 [Example 8],,3.1,≤ 100,more than 90%,,,,
CON=C(C1=NOCCO1)c1ccccc1Oc1nccc(OCC(F)(F)F)n1 [Example 3],,2.6,≤ 100,,,at least 70%,100,100
